Measured values taken from US4472401A, “Pyrimido-quinoxalines having antiallergic properties” (Roussel Uclaf, priority 1981, dated 1984).

Test system: passive cutaneous reaction mediated by Ig G antibodies
Test: Passive cutaneous anaphylaxis in the rat (PCR), Ig G mediated, inhibition after oral administration
Format: in vivo
Conditions: male Wistar rats
Protocol: Passive cutaneous anaphylaxis in the rat (PCR)
Passive cataneous anaphylaxis in the rat was carried out in male Wistar rats weighing 180-200 g sensitized by intradermal injection into four sites on shaved backs so as to produce a passive cutaneous reaction mediated by Ig G antibodies (a 4 hour sensitization following injection of antiserum heated at 56° C. for one hour). Antigen challenge was carried out in the same way; 1 mg of ovalbumen together with 0.5 ml of 1% Evans blue dye solution was injected intravenously and 30 minutes later, the animals were killed and the severity and area of each blue spot was scored when viewed from the reverse side of the skin.

| SMILES | inhibition in vivo at 1 mg/kg [%] | inhibition in vivo at 10 mg/kg [%] | inhibition in vivo at 0.1 mg/kg [%] |
| --- | --- | --- | --- |
| CCOC(=O)c1cnc2n(c1=O)-c1ccccc1NC2 [Example 1, Ethyl 5,6-dihydro-1-oxo-1H-pyrimido [1,2-a] quinoxaline-2-carboxylate] | 23 | 51 |  |
| CCOC(=O)c1cnc2n(c1=O)-c1ccccc1N(C(=O)Nc1ccccc1)C2 [Example 14, Ethyl 5,6-dihydro-1-oxo-6-phenylcarbamoyl-1H-pyrimido [1,2-a] quinoxaline-2-carboxylate] | 17.6 | 15.2 |  |
| CCOC(=O)c1cnc2n(c1=O)-c1ccccc1N(C(=O)C1CCCC1)C2 [Example 8] | 5.4 | 14.8 |  |
| CCOC(=O)c1cnc2n(c1=O)-c1ccccc1N(C(=O)c1ccccc1)C2 [Example 6, ethyl 6-benzoyl-1-oxo-5,6-dihydro-1H-pyrimido [1,2,-a] quinoxaline-2-carboxylate] | 23 | 43 |  |
| CCOC(=O)c1cnc2n(c1=O)-c1ccccc1N(C)C2 [Example 15, Ethyl 5,6-dihydro-6-methyl-1-oxo-1H-pyrimido [1,2-a] quinoxaline-2-carboxylate] | 7.7 | 30.2 | 7.7 |
| CCOC(=O)c1cnc2n(c1=O)-c1ccccc1N(C(C)=O)C2 [Example 3, Ethyl 6-acetyl-5,6-dihydro-1-oxo-1H-pyrimido [1,2-a] quinoxaline-2-carboxylate] | 18.5 | 33.3 |  |
| CCOC(=O)c1cnc2n(c1=O)-c1ccccc1N(C(=O)CC)C2 [Example 7] | 8.2 | 5.8 |  |
| CCOC(=O)c1cnc2n(c1=O)-c1ccccc1N(C(=O)OCC)C2 [Example 2, Diethyl 5,6-dihydro-1-oxo-1H-pyrimido [1,2-a] quinoxaline-2,6-dicarboxylate] | 31 | 34.9 |  |
| CCOC(=O)c1cnc2n(c1=O)-c1ccccc1N(C=O)C2 [Example 13, Ethyl 5,6-dihydro-6-formyl-1-oxo-1H-pyrimido [1,2-a]quinoxaline-2-carboxylate] | 4.1 | 12.4 | 0.6 |
| CCOC(=O)c1cnc2n(c1=O)-c1ccccc1N(C(=O)C1CC1)C2 [Example 5] | 23 | 33.3 |  |
| CCOC(=O)c1cnc2n(c1=O)-c1ccccc1N(C(=O)C(C)C)C2 [Example 4] | 16 | 8.9 | 4.1 |
